Patent US20140343001A1, “INDOLE DERIVATIVES INHIBITORS OF ENZYME LACTATE DEHYDROGENASE (LDH)” (Universitá di Pisa, priority 2011, published 2014)

Target: T1, hLDH5 (LDH-A) (Homo sapiens, UniProt P00338)
T1 construct: purchased LEEBIO (USA)
Test: Enzyme inhibition of human lactate dehydrogenase isoform 5
Format: biochemical
Settings: ranges of values; 37° C., pH 7.4; read-out: inhibitory activity against hLDH5 (Ki)
Protocol: The compounds described in the examples were evaluated in enzymatic assays to assess its inhibitory properties against two human isoforms of lactate dehydrogenase, hLDH5 containing solely the subunit LDH-A (LEEBIO—USA), and the hLDH1 containing only the LDH subunits-B (Sigma Aldrich, USA), in order to verify the selectivity of these compounds.
(for Ki measurements). Such assays were conducted in cells containing 200 μL of a solution comprising the reagents dissolved in phosphate buffer (KH2PO4 and K2HPO4) at pH 7.4.
IC50 values were calculated as described below. […] Seven different concentrations (in duplicate for each concentration) of compound were used to generate a concentration-response curve. […] Compound solutions were dispensed in 96-well plates (8 μL), then substrate and cofactor dissolved in buffer (152 μl) and enzyme solution (40 μl) were finally added. Dilution of the enzyme stock solution was made to allow a 10% consumption of the cofactor after 15 min. The eventual background fluorescence of the tested compounds or quenching of the NADH fluorescence by the tested compounds was subtracted. In addition to the compound test wells, each plate contained maximum and minimum controls. Assay plates were incubated at room temperature for 15 min and the final measurements were performed using Victor X3 Microplates reader (PerkinElmer®) at a fluorescence emission wavelength of 460 nm (excitation at 340 nm). IC50 were generated using the curve-fitting tool of GraphPad Prism].
The resulting data of enzymatic kinetic (the constants of Michaelis-Menten) were determined by analysis of non-linear regression.

`COC(=O)c1cc2c(C(F)(F)F)cc(-c3ccc(OC(F)(F)F)cc3)cc2n1O` [Example 18, methyl 1-hydroxy-4-(trifluoromethyl)-6-(4-(trifluoromethoxy)phenyl)-1H-indole-2-carboxylate] and `O=C(O)c1cc2c(C(F)(F)F)cc(-c3ccc(OC(F)(F)F)cc3)cc2n1O` [Example 24, 1-hydroxy-4-(trifluoromethyl)-6-(4-(trifluoromethoxy)phenyl)-1H-indole-2-carboxylic acid] cannot be ordered by Ki: 1 to 10 µM for the first, 0.5 to 5 µM for the second.

`O=C(O)c1cc2c(F)cc(-c3ccc(Cl)cc3Cl)cc2n1O` [Example 54, 6-(2,4-dichlorophenyl)-4-fluoro-1-hydroxy-1H-indole-2-carboxylic acid] and `O=C(O)c1cc2c(F)cc(-c3ccccc3)cc2n1O` [Example 52, 4-fluoro-1-hydroxy-6-phenyl-1H-indole-2-carboxylic acid] fall in the same range of Ki: 5 to 25 µM for the first, 5 to 25 µM for the second.

`O=C(O)c1cc2c(C(F)(F)F)cc(-c3ccc(Cl)c(Cl)c3)cc2n1O` [Example 27, 6-(3,4-dichlorophenyl)-1-hydroxy-4-(trifluoromethyl)-1H-indole-2-carboxylic acid] and `O=C(O)c1cc2c(C(F)(F)F)cc(-c3cccc(Cl)c3Cl)cc2n1O` [Example 37, 6-(2,3-dichlorophenyl)-1-hydroxy-4-(trifluoromethyl)-1H-indole-2-carboxylic acid] fall in the same range of Ki: 1 to 10 µM for the first, 1 to 10 µM for the second.

`O=C(O)c1cc2c(C(F)(F)F)cc(-c3ccccc3)cc2n1O[C@@H]1O[C@H](CO)[C@@H](O)[C@H](O)[C@H]1O` [Example 2, 6-phenyl-1-(β-D-glucopyranosyl)oxy-4-(trifluoromethyl)-1H-indole-2-carboxylic acid] and `COC(=O)c1cc2c(F)cc(-c3ccccc3)cc2n1O` [Example 51, methyl 4-fluoro-1-hydroxy-6-phenyl-1H-indole-2-carboxylate] fall in the same range of Ki: 10 to 100 µM for the first, 10 to 100 µM for the second.

Same assay, conditions: ranges of values; room temperature, pH 7.4; read-out: inhibitory activity against hLDH5 (IC50)

`COC(=O)c1c(C)c2c(C(F)(F)F)cc(-c3ccccc3)cc2n1O` [Example 16, methyl 1-hydroxy-6-phenyl-3-methyl-4-(trifluoromethyl)-1H-indole-2-carboxylate] and `COC(=O)c1c(C)c2c(C(F)(F)F)cc(-c3ccc(Cl)cc3Cl)cc2n1O` [Example 20, methyl 6-(2,4-dichlorophenyl)-1-hydroxy-3-methyl-4-(trifluoromethyl)-1H-indole-2-carboxylate] fall in the same range of IC50: 1 to 10 µM for the first, 1 to 10 µM for the second.

`CCOC(=O)c1cc2c(C(F)(F)F)cc(-c3ccccc3)cc2n1O[C@@H]1O[C@H](CO)[C@@H](O)[C@H](O)[C@H]1O` [Example 6, ethyl 6-phenyl-1-(β-D-glucopyranosyl)oxy-4-(trifluoromethyl)-1H-indole-2-carboxylate] and `CC(C)OC(=O)c1cc2c(C(F)(F)F)cc(-c3ccc(Cl)cc3Cl)cc2n1O[C@@H]1O[C@H](CO)[C@@H](O)[C@H](O)[C@H]1O` [Example 45, isopropyl 6-(2,4-dichlorophenyl)-1-(β-D-glucopyranosyl)oxy-4-(trifluoromethyl)-1H-indole-2-carboxylate] cannot be ordered by IC50: 50 to 500 µM for the first, over 100 µM for the second.

`CCCCOC(=O)c1cc2c(C(F)(F)F)cc(-c3ccccc3)cc2n1O[C@@H]1O[C@H](COC(C)=O)[C@@H](OC(C)=O)[C@H](OC(C)=O)[C@H]1OC(C)=O` [Example 28, butyl 6-phenyl-1-(β-D-2,3,4,6-tetra-O-acetylglucopyranosyl)oxy-4-(trifluoromethyl)-1H-indole-2-carboxylate] and `CCOC(=O)c1cc2c(C(F)(F)F)cc(-c3ccccc3)cc2n1O[C@@H]1O[C@H](COC(C)=O)[C@@H](OC(C)=O)[C@H](OC(C)=O)[C@H]1OC(C)=O` [Example 7, ethyl 6-phenyl-1-(β-d-2,3,4,6-tetra-O-acetylglucopyranosyl)oxy-4-(trifluoromethyl)-1H-indole-2-carboxylate] cannot be ordered by IC50: over 100 µM for the first, over 100 µM for the second.

`O=C(OCc1ccc(Cl)cc1)c1cc2c(C(F)(F)F)cc(-c3ccc(Cl)cc3Cl)cc2n1O` [Example 63, 4-chlorobenzyl 6-(2,4-dichlorophenyl)-1-hydroxy-4-(trifluoromethyl)-1H-indole-2-carboxylate] and `COc1ccc(COC(=O)c2cc3c(C(F)(F)F)cc(-c4ccc(Cl)cc4Cl)cc3n2O)cc1` [Example 60, 4-methoxybenzyl 6-(2,4-dichlorophenyl)-1-hydroxy-4-(trifluoromethyl)-1H-indole-2-carboxylate] fall in the same range of IC50: 0.01 to 1 µM for the first, 0.01 to 1 µM for the second.

`CCCCOC(=O)c1cc2c(C(F)(F)F)cc(-c3ccc(Cl)cc3Cl)cc2n1O[C@@H]1O[C@H](COC(C)=O)[C@@H](OC(C)=O)[C@H](OC(C)=O)[C@H]1OC(C)=O` [Example 46, butyl 6-(2,4-dichlorophenyl)-1-(β-d-2,3,4,6-tetra-O-acetylglucopyranosyl)oxy-4-(trifluoromethyl)-1H-indole-2-carboxylate] and `CCOC(=O)c1cc2c(C(F)(F)F)cc(-c3ccc(Cl)cc3Cl)cc2n1O[C@@H]1O[C@H](COC(C)=O)[C@@H](OC(C)=O)[C@H](OC(C)=O)[C@H]1OC(C)=O` [Example 13, ethyl 6-(2,4-dichlorophenyl)-1-(β-d-2,3,4,6-tetra-O-acetylglucopyranosyl)oxy-4-(trifluoromethyl)-1H-indole-2-carboxylate] cannot be ordered by IC50: over 100 µM for the first, over 100 µM for the second.

First: CC(C)(C)C1CCC(OC(=O)c2cc3c(C(F)(F)F)cc(-c4ccc(Cl)cc4Cl)cc3n2O)CC1 (stereo not shown) [Example 50, 4-(tert-butyl)cyclohexyl 6-(2,4-dichlorophenyl)-1-hydroxy-4-(trifluoromethyl)-1H-indole-2-carboxylate]
Second: CN1CCC(OC(=O)c2cc3c(C(F)(F)F)cc(-c4ccc(Cl)cc4Cl)cc3n2O)CC1 [Example 58, 1-methylpiperidin-4-yl 6-(2,4-dichlorophenyl)-1-hydroxy-4-(trifluoromethyl)-1H-indole-2-carboxylate]
The IC50 of the first is lower: 0.01 to 1 µM for the first, over 100 µM for the second.

First: COC(=O)c1cc2c(C(F)(F)F)cc(-c3ccc(Cl)c(Cl)c3)cc2n1O [Example 21, methyl 6-(3,4-dichlorophenyl)-1-hydroxy-4-(trifluoromethyl)-1H-indole-2-carboxylate]
Second: O=C(OCc1ccccc1)c1cc2c(C(F)(F)F)cc(-c3ccc(Cl)cc3Cl)cc2n1O [Example 55, benzyl 6-(2,4-dichlorophenyl)-1-hydroxy-4-(trifluoromethyl)-1H-indole-2-carboxylate]
The IC50 of the first is higher: over 100 µM for the first, 0.01 to 1 µM for the second.

`O=C(OCc1ccc(-c2ccccc2)cc1)c1cc2c(C(F)(F)F)cc(-c3ccc(Cl)cc3Cl)cc2n1O` [Example 56, [1,1′-biphenyl]-4-ylmethyl 6-(2,4-dichlorophenyl)-1-hydroxy-4-(trifluoromethyl)-1H-indole-2-carboxylate] and `O=C(OCc1ccc([N+](=O)[O-])cc1)c1cc2c(C(F)(F)F)cc(-c3ccc(Cl)cc3Cl)cc2n1O` [Example 61, 4-nitrobenzyl 6-(2,4-dichlorophenyl)-1-hydroxy-4-(trifluoromethyl)-1H-indole-2-carboxylate] fall in the same range of IC50: 0.01 to 1 µM for the first, 0.01 to 1 µM for the second.

First: CC(C)(C)C1CCC(OC(=O)c2cc3c(C(F)(F)F)cc(-c4ccccc4)cc3n2O)CC1 (stereo not shown) [Example 49, 4-(tert-butyl)cyclohexyl 1-hydroxy-6-phenyl-4-(trifluoromethyl)-1H-indole-2-carboxylate]
Second: COC(=O)c1cc2c(C(F)(F)F)cc(-c3ccccc3)c(-c3ccccc3)c2n1O [Example 14, methyl 1-hydroxy-6,7-diphenyl-4-(trifluoromethyl)-1H-indole-2-carboxylate]
The IC50 of the first is lower: 0.01 to 1 µM for the first, 1 to 10 µM for the second. The first is the more potent here.

`COC(=O)c1cc2c(C(F)(F)F)cc(-c3ccccc3)cc2n1O[C@@H]1O[C@H](COC(C)=O)[C@@H](OC(C)=O)[C@H](OC(C)=O)[C@H]1OC(C)=O` [Example 5, methyl 6-phenyl-1-(β-d-2,3,4,6-tetra-O-acetylglucopyranosyl)oxy-4-(trifluoromethyl)-1H-indole-2-carboxylate] and `COC(=O)c1cc2c(C(F)(F)F)cc(-c3ccc(Cl)cc3Cl)cc2n1O[C@@H]1O[C@H](COC(C)=O)[C@@H](OC(C)=O)[C@H](OC(C)=O)[C@H]1OC(C)=O` [Example 11, methyl 6-(2,4-dichlorophenyl)-1-(β-d-2,3,4,6-tetra-O-acetylglucopyranosyl)oxy-4-(trifluoromethyl)-1H-indole-2-carboxylate] cannot be ordered by IC50: 50 to 500 µM for the first, over 100 µM for the second.

First: O=C(OCc1ccc(C(F)(F)F)cc1)c1cc2c(C(F)(F)F)cc(-c3ccc(Cl)cc3Cl)cc2n1O [Example 64, 4-(trifluoromethyl)benzyl 6-(2,4-dichlorophenyl)-1-hydroxy-4-(trifluoromethyl)-1H-indole-2-carboxylate]
Second: Cc1c(C(=O)O)n(O)c2cc(-c3ccc(Cl)cc3Cl)cc(C(F)(F)F)c12 [Example 26, 6-(2,4-dichlorophenyl)-1-hydroxy-3-methyl-4-(trifluoromethyl)-1H-indole-2-carboxylic acid]
The IC50 of the first is lower: 0.01 to 1 µM for the first, 1 to 10 µM for the second. The first is the more potent here.

`CC(=O)OC[C@H]1O[C@@H](On2c(C(=O)OC(C)C)cc3c(C(F)(F)F)cc(-c4ccc(Cl)cc4Cl)cc32)[C@H](OC(C)=O)[C@@H](OC(C)=O)[C@@H]1OC(C)=O` [Example 44, isopropyl 6-(2,4-dichlorophenyl)-1-(β-d-2,3,4,6-tetra-O-acetylglucopyranosyl)oxy-4-(trifluoromethyl)-1H-indole-2-carboxylate] was tested, and the IC50 was over 100 µM.
